From PMC10259452 (Journal of Medicinal Chemistry, 2023)
Read-outs that look alike come from different tables or passages of the source.

Legend:
human GAL4-RORγ = biological target: T1, human GAL4-RORγ (Homo sapiens, UniProt P51449); assay: human GAL4-RORγ reporter assay; type: cell-based
T1 sequence (P51449 269-508 limits assumed): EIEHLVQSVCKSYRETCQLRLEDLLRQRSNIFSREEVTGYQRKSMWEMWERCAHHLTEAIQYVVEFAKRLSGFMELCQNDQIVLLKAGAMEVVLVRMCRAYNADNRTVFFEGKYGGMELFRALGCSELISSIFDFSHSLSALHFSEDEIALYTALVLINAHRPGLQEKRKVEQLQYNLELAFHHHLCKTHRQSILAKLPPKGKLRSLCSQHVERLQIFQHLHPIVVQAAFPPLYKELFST

[1] = pH 7.4
[2] = mouse, microsomes, pH 7.4
[3] = human, microsomes, pH 7.4
[4] = rat, microsomes, pH 7.4
[5] = dog, microsomes, pH 7.4
[6] = microsomes
[7] = test system: human peripheral blood mononuclear cells (PBMCs)

| microsomal stability Clin [2] | microsomal stability Clin [3] | microsomal stability Clin [4] | microsomal stability Clin [5] | intrinsic clearance (Clin) grade in words [6] | Caco-2 permeability in the A–B direction, grade in words (Caco-2 cells; Caco-2) | MDR1-MDCKII permeability in the A–B direction, grade in words (MDR1-MDCKII cells; MDCK-MDR1) | dependence of solubility on pH (in words) [1] | recovery in Caco-2 permeability assay (Caco-2 cells; human, Caco-2, pH 7.4) [%] | Compound | reduction in IL17A+ cells compared to control (in words) [7] | other results |
| --- | --- | --- | --- | --- | --- | --- | --- | --- | --- | --- | --- |
| 71/67/97/53 μL/min/mg | 71/67/97/53 μL/min/mg | 71/67/97/53 μL/min/mg | 71/67/97/53 μL/min/mg | – | high permeability | high | – | – | CC1CCCN1C(=O)c1c(NC(=O)c2cccnc2)sc2c1CCCC2 (centres unmarked) [Compound 12, N-(3-(2-Methylpyrrolidine-1-carbonyl)-4,5,6,7-tetrahydro-benzo[b]thiophen-2-yl) Nicotinamide] | – | – |
| 414/404/507/369 μL/min/mg | 414/404/507/369 μL/min/mg | 414/404/507/369 μL/min/mg | 414/404/507/369 μL/min/mg | moderate | – | – | – | – | C[C@@H]1CCN(C(=O)c2c(NC(=O)c3cccnc3)sc3c2CCCC3)[C@H](C)C1 [Compound 13, N-(3-((2R,4R)-2,4-Dimethylpiperidine-1-carbonyl)-4,5,6,7-tetrahydrobenzo[b]thiophen-2-yl) Nicotinamide] | greatest reduction | IL17A secretion from polarized PBMCs compared to the vehicle [7]: decreased; IL21 secretion from polarized PBMCs compared to the vehicle [7]: decreased; reduction in percentage of IL17A+ cells [7]: 40–60% |
| 46/23/7/11 μL/min/mg | 46/23/7/11 μL/min/mg | 46/23/7/11 μL/min/mg | 46/23/7/11 μL/min/mg | – | moderate | moderate | inversely proportional | – | O=C(Nc1sc2c(c1C(=O)N1CCC(CO)C1)CCCC2)c1cccnc1 (centres unmarked) [Compound 17, N-(3-(3-(Hydroxymethyl)pyrrolidine-1-carbonyl)-4,5,6,7-tetrahydrobenzo[b]thiophen-2-yl) Nicotinamide] | – | active efflux in Caco-2 (Caco-2 cells; Caco-2): active efflux; active efflux / P-gp substrate in MDR1-MDCKII (MDR1-MDCKII cells; MDCK-MDR1): active efflux and are P-gp substrates |
| 2142/954/887/332 μL/min/mg | 2142/954/887/332 μL/min/mg | 2142/954/887/332 μL/min/mg | 2142/954/887/332 μL/min/mg | high | – | – | inversely proportional | – | Cn1ccnc1SCC(=O)Nc1sc2c(c1C(=O)NCc1ccccc1)CCCC2 [Compound 16, N-Benzyl-2-(2-((1-methyl-1H-imidazole-2-yl)thio)acetamido)-4,5,6,7-tetrahydrobenzo[b]thiophene-3-carboxamide] | – | – |
| 2345/510/942/260 μL/min/mg | 2345/510/942/260 μL/min/mg | 2345/510/942/260 μL/min/mg | 2345/510/942/260 μL/min/mg | high | low permeability | low permeability | – | < 80 | CC1CCN(CC(=O)Nc2sc3c(c2C(=O)NCc2ccccc2)CCCC3)CC1 [Compound 11, N-Benzyl-2-{[(4-methyl-1-piperidinyl) Acetyl]amino}-4,5,6,7-tetrahydro-1-benzothiophene-3-carboxamide] | – | Caco-2 permeability efflux verapamil (Caco-2 cells; human, Caco-2, pH 7.4): 1.2; MDR1-MDCKII permeability efflux cyclosporine A (MDR1-MDCKII cells; dog, MDCK-MDR1, pH 7.4): 0.7 |

More lines, now with the values behind:

| Compound | microsomal stability Clin [2] | microsomal stability Clin [3] | microsomal stability Clin [4] | microsomal stability Clin [5] | intrinsic clearance (Clin) grade in words [6] | Caco-2 permeability in the A–B direction, grade in words (Caco-2 cells; Caco-2) | MDR1-MDCKII permeability in the A–B direction, grade in words (MDR1-MDCKII cells; MDCK-MDR1) | dependence of solubility on pH (in words) [1] | recovery in Caco-2 permeability assay (Caco-2 cells; human, Caco-2, pH 7.4) [%] | reduction in IL17A+ cells compared to control (in words) [7] | other results |
| --- | --- | --- | --- | --- | --- | --- | --- | --- | --- | --- | --- |
| CSc1ncc(Cl)c(C(=O)Nc2sc3c(c2C(=O)NC2CCS(=O)(=O)C2)CCC(C)C3)n1 (centres unmarked) [Compound 3, 5-Chloro-N-(3-{[(1,1-dioxidotetrahydro-3-thienyl)amino]-carbonyl}-6-methyl-4,5,6,7-tetrahydro-1-benzothien-2-yl)-2-(methylthio)-4-pyrimidine-carboxamide] | 322/36/118/41 μL/min/mg | 322/36/118/41 μL/min/mg | 322/36/118/41 μL/min/mg | 322/36/118/41 μL/min/mg | moderate | low permeability | moderate | – | – | – | IC50 (human GAL4-RORγ): 2.19 nM; stability in acidic pH (in words) [1]: unstable; active efflux in Caco-2 (Caco-2 cells; Caco-2): active efflux; effect of verapamil on efflux ratio in Caco-2 (Caco-2 cells; Caco-2): decreased partially; active efflux / P-gp substrate in MDR1-MDCKII (MDR1-MDCKII cells; MDCK-MDR1): active efflux and are P-gp substrates; effect of cyclosporine A on efflux ratio in MDR1-MDCKII cells (MDR1-MDCKII cells; MDCK-MDR1): completely blocked |
| CSc1ncc(Cl)c(C(=O)Nc2sc3c(c2C(=O)NCc2ccccc2)CCCC3)n1 [Compound 2, N-(3-(Benzylcarbamoyl)-4,5,6,7-tetrahydrobenzo[b]thiophen-2-yl)-5-chloro-2-(methylthio) Pyrimidine-4-carboxamide] | 127/126/267/115 μL/min/mg | 127/126/267/115 μL/min/mg | 127/126/267/115 μL/min/mg | 127/126/267/115 μL/min/mg | moderate | moderate | moderate | – | < 80 | greatest reduction | IC50 (human GAL4-RORγ): 0.75 nM; IL17A secretion from polarized PBMCs compared to the vehicle [7]: decreased; IL21 secretion from polarized PBMCs compared to the vehicle [7]: decreased; cell death / cell viability by flow cytometry [7]: no sign of cell death or decrease in cell viability; reduction in percentage of IL17A+ cells [7]: 40–60%; reduction of percentage of IL17A+ cells, multiple donors [7]: 20–40%; reduction of percentage of IL21+ cells, multiple donors [7]: 20–40% |
| CC1CCc2c(sc(NC(=O)c3ccccc3F)c2C(=O)N2CCN(C)CC2)C1 (centres unmarked) [Compound 6, 2-Fluoro-N-{6-methyl-3-[(4-methyl-1-piperazinyl)carbonyl]-4,5,6,7-tetrahydro-1-benzothien-2-yl} Benzamide] | 546/91/116/60 μL/min/mg | 546/91/116/60 μL/min/mg | 546/91/116/60 μL/min/mg | 546/91/116/60 μL/min/mg | moderate | – | – | inversely proportional | – | – | – |
| CCC1CCc2c(sc(NC(=O)c3ccnn3C)c2C(=O)Nc2ccccc2C)C1 (centres unmarked) [Compound 4, N-(6-Ethyl-3-{[(2-methylphenyl)amino]carbonyl}-4,5,6,7-tetrahydro-1-benzothien-2-yl)-1-methyl-1H-pyrazole-5-carboxamide] | 11/22/29/24 μL/min/mg | 11/22/29/24 μL/min/mg | 11/22/29/24 μL/min/mg | 11/22/29/24 μL/min/mg | – | – | – | not affected | < 80 | – | – |
| CN1CCN(CC(=O)Nc2sc3c(c2C(=O)NCc2ccccc2)CCCC3)CC1 [Compound 10, N-Benzyl-2-{[(4-methyl-1-piperazinyl) Acetyl]amino}-4,5,6,7-tetrahydro-1-benzothiophene-3-carboxamide] | 319/214/115/132 μL/min/mg | 319/214/115/132 μL/min/mg | 319/214/115/132 μL/min/mg | 319/214/115/132 μL/min/mg | moderate | moderate | moderate | – | < 80 | greatest reduction | IC50 (human GAL4-RORγ): 0.82 nM; IL17A secretion from polarized PBMCs compared to the vehicle [7]: decreased; IL21 secretion from polarized PBMCs compared to the vehicle [7]: decreased; reduction in percentage of IL17A+ cells [7]: 40–60% |
| O=C(CN1CCCCC1)Nc1sc2c(c1C(=O)NCc1ccccc1)CCCC2 [Compound 9, N-Benzyl-2-[(1-piperidinylacetyl)amino]-4,5,6,7-tetrahydro-1-benzothiophene-3-carboxamide] | – | – | – | – | – | – | – | – | – | greatest reduction | – |
